In patent publication US20240009116A1, “DRUG DELIVERY SYSTEM COMPRISING A NON-STEROIDAL ANTI-INFLAMMATORY (NSAID) AND A PROGESTOGENIC COMPOUND AND METHODS FOR MANUFACTURING” (Bayer OY, priority 2015, published 2024):

Test: Polymorph form during filament preparation and printing (i.a. X-ray diffraction)
Type: physicochemical
From the text: As drug indomethacin was used. Indomethacin can appear in different polymorphic forms, which are differently bioavailable. In the current examples the stable form y-indomethacin was used. […] Other NSAID's such as meloxicam, piroxicam, naproxen, celecoxib, diclofenac, tenoxicam, nimesulide, lornoxicam and indomethacin are likewise suitable, of which indomethacin is particularly preferred.

COc1ccc2c(c1)c(CC(=O)O)c(C)n2C(=O)c1ccc(Cl)cc1 [y-indomethacin, indomethacin]
polymorph form stability: the polymorph form does not change during filament preparation and printing
